PubChem BioAssay AID507

Test system: Human MGC4172 (short-chain dehydrogenase/reductase, DHRS11)
Assay: MGC4172 binders by thermal stabilisation, biophysical, DSF, SYPRO orange, recombinant human protein (AID 507)
Conditions: at 100 µM, protein 2 µM, buffer 10 mM HEPES, pH 7.5, NaCl 150 mM, NADPH 200 µM, hits give high values

- Tm shift: 2.3 Celsius
Structure (SMILES): CN(CCOc1ccc(CC2SC(=O)NC2=O)cc1)c1ccccn1 (stereo unspecified)
